Measured values taken from ChEMBL document CHEMBL1137069, “Design, synthesis and anti-microbial activity of 1H-pyrazole carboxylates” (2004).
Where “and” joins values, the source holds several entries; their conditions need not be identical. Equal entries are not always repeated.

Assays:
Assay type in all cases: functional
Alternaria alternata [1] = experiment: Antifungal activity against Alternaria alternata was measured as mycelial growth at 0.5 mg/mL concentration
[2] = Antifungal activity against Bipolaris oryzae was determined at 0.1 mg/mL concentration
Pseudomonas aeruginosa [3] = experiment: Antibacterial activity against Pseudomonas aeruginosa was measured as area of inhibition zone at 0.1 mg/mL concentration; settings: for zone of inhibition at 100 µg/mL: Pseudomonas aeruginosa
Curvularia lunata [4] = experiment: Antifungal activity against Curvularia lunata was measured as mycelial growth at 0.1 mg/mL concentration
[5] = Antifungal activity against Bipolaris oryzae was measured as mycelial growth at 0.5 mg/mL concentration
Enterococcus faecalis [6] = experiment: Antibacterial activity against […] was measured as area of inhibition zone at 0.1 mg/mL concentration
Enterococcus faecalis [7] = experiment: Antibacterial activity against […] was determined at 0.5 mg/mL concentration
Staphylococcus aureus [8] = experiment: Antibacterial activity against Staphylococcus aureus was measured as area of inhibition zone at 0.1 mg/mL concentration; settings: for zone of inhibition at 100 µg/mL: Staphylococcus aureus
Staphylococcus aureus [9] = experiment: Antibacterial activity against Staphylococcus aureus was determined at 0.1 mg/mL concentration
Thanatephorus cucumeris [10] = experiment: Antifungal activity against Rhizoctonia solani was measured as mycelial growth at 0.5 mg/mL concentration
[11] = Antifungal activity against Bipolaris oryzae was measured as mycelial growth at 0.1 mg/mL concentration
Curvularia lunata [12] = experiment: Antifungal activity against Curvularia lunata was determined at 0.1 mg/mL concentration
Staphylococcus aureus [13] = experiment: Antibacterial activity against Staphylococcus aureus was determined at 0.5 mg/mL concentration
Fusarium oxysporum [14] = experiment: Antifungal activity against Fusarium oxysporum was determined at 0.1 mg/mL concentration
Pseudomonas aeruginosa [15] = experiment: Antibacterial activity against Pseudomonas aeruginosa was determined at 0.1 mg/mL concentration
Enterococcus faecalis [16] = experiment: Antibacterial activity against […] was determined at 0.1 mg/mL concentration
Fusarium oxysporum [17] = experiment: Antifungal activity against Fusarium oxysporum was measured as mycelial growth at 0.5 mg/mL concentration
Alternaria alternata [18] = experiment: Antifungal activity against Alternaria alternata was determined at 0.1 mg/mL concentration
Escherichia coli [19] = experiment: Antibacterial activity against Escherichia coli was determined at 0.5 mg/mL concentration
Thanatephorus cucumeris [20] = experiment: Antifungal activity against Rhizoctonia solani was determined at 0.5 mg/mL concentration
[21] = Antifungal activity against Bipolaris oryzae was determined at 0.5 mg/mL concentration
Alternaria alternata [22] = experiment: Antifungal activity against Alternaria alternata was measured as mycelial growth at 0.1 mg/mL concentration
Curvularia lunata [23] = experiment: Antifungal activity against Curvularia lunata was determined at 0.5 mg/mL concentration
Alternaria alternata [24] = experiment: Antifungal activity against Alternaria alternata was determined at 0.5 mg/mL concentration
Escherichia coli [25] = experiment: Antibacterial activity against Escherichia coli was determined at 0.1 mg/mL concentration
Fusarium oxysporum [26] = experiment: Antifungal activity against Fusarium oxysporum was determined at 0.5 mg/mL concentration
Thanatephorus cucumeris [27] = experiment: Antifungal activity against Rhizoctonia solani was measured as mycelial growth at 0.1 mg/mL concentration
Thanatephorus cucumeris [28] = experiment: Antifungal activity against Rhizoctonia solani was determined at 0.1 mg/mL concentration
Curvularia lunata [29] = experiment: Antifungal activity against Curvularia lunata was measured as mycelial growth at 0.5 mg/mL concentration
Pseudomonas aeruginosa [30] = experiment: Antibacterial activity against Pseudomonas aeruginosa was determined at 0.5 mg/mL concentration
Fusarium oxysporum [31] = experiment: Antifungal activity against Fusarium oxysporum was measured as mycelial growth at 0.1 mg/mL concentration

Structure (SMILES)	Mycelial growth (Alternaria alternata [1])	inhibition at 100 µg/mL [2]	zone of inhibition at 100 µg/mL (Pseudomonas aeruginosa [3])	Mycelial growth (Curvularia lunata [4])	Mycelial growth [5]	zone of inhibition at 100 µg/mL (Enterococcus faecalis [6])	inhibition at 500 µg/mL (Enterococcus faecalis [7])	Inhibition Zone (Staphylococcus aureus [8])	inhibition at 100 µg/mL (Staphylococcus aureus [9])	Mycelial growth (Thanatephorus cucumeris [10])	Mycelial growth [11]	inhibition at 100 µg/mL (Curvularia lunata [12])	inhibition at 500 µg/mL (Staphylococcus aureus [13])	inhibition at 100 µg/mL (Fusarium oxysporum [14])	inhibition at 100 µg/mL (Pseudomonas aeruginosa [15])	inhibition at 100 µg/mL (Enterococcus faecalis [16])	Mycelial growth (Fusarium oxysporum [17])	inhibition at 100 µg/mL (Alternaria alternata [18])	inhibition at 500 µg/mL (Escherichia coli [19])	inhibition at 500 µg/mL (Thanatephorus cucumeris [20])	also measured
CCOC(=O)c1cn(-c2ccc([N+](=O)[O-])cc2[N+](=O)[O-])nc1-c1ccccc1F	3.4 cm	36.7%	0 mm	5 cm	4.3 cm	23 mm	25.6%	7.3 cm	46.7%	8.2 cm	5.7 cm	44.4%	81.1%	33.3%	0%	0%	5.3 cm	53.3%	56.7%	8.9%	zone of inhibition at 100 µg/mL (Staphylococcus aureus [8]): 42 mm; inhibition at 500 µg/mL [21]: 52.2%; Mycelial growth (Alternaria alternata [22]): 4.2 cm; inhibition at 500 µg/mL (Curvularia lunata [23]): 55.6%; inhibition at 500 µg/mL (Alternaria alternata [24]): 62.2%; inhibition at 100 µg/mL (Escherichia coli [25]): 20%; inhibition at 500 µg/mL (Fusarium oxysporum [26]): 41.1%; Mycelial growth (Thanatephorus cucumeris [27]): 9 cm; inhibition at 100 µg/mL (Thanatephorus cucumeris [28]): 0%; Mycelial growth (Curvularia lunata [29]): 4 cm; inhibition at 500 µg/mL (Pseudomonas aeruginosa [30]): 0%; Mycelial growth (Fusarium oxysporum [31]): 6 cm
Cc1nn(-c2ccc([N+](=O)[O-])cc2[N+](=O)[O-])cc1C(=O)OCc1ccccc1	4.2 cm	33.3%	17 mm	6.4 cm	4.8 cm	73 mm	81.1%	4.1 cm	45.6%	6.5 cm	6 cm	28.9%	78.9%	30%	18.9%	56.7%	4.3 cm	42.2%	54.4%	27.8%	Inhibition Zone (Pseudomonas aeruginosa [3]): 2 cm; zone of inhibition at 100 µg/mL (Staphylococcus aureus [8]): 71 mm; inhibition at 500 µg/mL [21]: 46.7%; Mycelial growth (Alternaria alternata [22]): 5.2 cm; inhibition at 500 µg/mL (Curvularia lunata [23]): 41.1%; inhibition at 500 µg/mL (Alternaria alternata [24]): 53.3%; inhibition at 100 µg/mL (Escherichia coli [25]): 17.8%; inhibition at 500 µg/mL (Fusarium oxysporum [26]): 52.2%; Mycelial growth (Thanatephorus cucumeris [27]): 7.9 cm; inhibition at 100 µg/mL (Thanatephorus cucumeris [28]): 12.2%; Mycelial growth (Curvularia lunata [29]): 5.3 cm; inhibition at 500 µg/mL (Pseudomonas aeruginosa [30]): 22.2%; Mycelial growth (Fusarium oxysporum [31]): 6.3 cm
Cc1nn(-c2ccc([N+](=O)[O-])cc2[N+](=O)[O-])cc1C(=O)OC(C)(C)C	5.1 cm	38.9%	0 mm	6.7 cm	4.3 cm	48 mm	53.3%	7.3 cm	81.1%	8.5 cm	5.5 cm	25.6%	93.3%	13.3%	0%	21.1%	5.7 cm	31.1%	52.2%	5.6%	zone of inhibition at 100 µg/mL (Staphylococcus aureus [8]): 84 mm; inhibition at 500 µg/mL [21]: 52.2%; Mycelial growth (Alternaria alternata [22]): 6.2 cm; inhibition at 500 µg/mL (Curvularia lunata [23]): 40%; inhibition at 500 µg/mL (Alternaria alternata [24]): 43.3%; inhibition at 100 µg/mL (Escherichia coli [25]): 16.7%; inhibition at 500 µg/mL (Fusarium oxysporum [26]): 36.7%; Mycelial growth (Thanatephorus cucumeris [27]): 9 cm; inhibition at 100 µg/mL (Thanatephorus cucumeris [28]): 0%; Mycelial growth (Curvularia lunata [29]): 5.4 cm; inhibition at 500 µg/mL (Pseudomonas aeruginosa [30]): 0%; Mycelial growth (Fusarium oxysporum [31]): 7.8 cm
CCOC(=O)c1cn(-c2ccc([N+](=O)[O-])cc2[N+](=O)[O-])nc1CCl	4.8 cm	34.4%	0 mm	6 cm	4.6 cm	0 mm	0%	8.3 cm	76.6%	8.5 cm	5.9 cm	33.3%	92.2%	24.4%	0%	0%	4.6 cm	33.3%	51.1%	5.6%	zone of inhibition at 100 µg/mL (Staphylococcus aureus [8]): 69 mm; inhibition at 500 µg/mL [21]: 48.9%; Mycelial growth (Alternaria alternata [22]): 6 cm; inhibition at 500 µg/mL (Curvularia lunata [23]): 43.3%; inhibition at 500 µg/mL (Alternaria alternata [24]): 46.7%; inhibition at 100 µg/mL (Escherichia coli [25]): 17.8%; inhibition at 500 µg/mL (Fusarium oxysporum [26]): 48.9%; Mycelial growth (Thanatephorus cucumeris [27]): 9 cm; inhibition at 100 µg/mL (Thanatephorus cucumeris [28]): 0%; Mycelial growth (Curvularia lunata [29]): 5.1 cm; inhibition at 500 µg/mL (Pseudomonas aeruginosa [30]): 0%; Mycelial growth (Fusarium oxysporum [31]): 6.8 cm
CCOC(=O)c1cn(-c2ccc([N+](=O)[O-])cc2[N+](=O)[O-])nc1-c1ccc(Cl)cc1	4.2 cm	26.7%	0 mm	5.8 cm	3.9 cm	49 mm	54.4%	3.3 cm and 1.6 cm	17.8%	7.2 cm	6.6 cm	35.6%	36.7%	30%	0%	0%	4 cm	40%	52.2%	20%	inhibition at 500 µg/mL [21]: 56.7%; Mycelial growth (Alternaria alternata [22]): 5.4 cm; inhibition at 500 µg/mL (Curvularia lunata [23]): 46.7%; inhibition at 500 µg/mL (Alternaria alternata [24]): 53.3%; inhibition at 100 µg/mL (Escherichia coli [25]): 0%; inhibition at 500 µg/mL (Fusarium oxysporum [26]): 55.6%; Mycelial growth (Thanatephorus cucumeris [27]): 9 cm; inhibition at 100 µg/mL (Thanatephorus cucumeris [28]): 0%; Mycelial growth (Curvularia lunata [29]): 4.8 cm; inhibition at 500 µg/mL (Pseudomonas aeruginosa [30]): 0%; Mycelial growth (Fusarium oxysporum [31]): 6.3 cm
